Experimental data as given in patent US9931327B2, “Derivatives of 1-phenyl-2-pyridinyl alkyl alcohols as phosphodiesterase inhibitors” (Chiesi Farmaceutici S.p.A., priority 2011, dated 2018).

These compounds were tested on LPS-induced TNF-α release in peripheral blood mononuclear cells (PBMCs) (assay: In vitro determination of PDE4 inhibitory activity in the PBMCs assay (LPS-induced TNF-α release)). Conditions: PBMC; human PBMCs, LPS 3 ng/ml, 18 hours, TNF-α by ELISA; read-out: PDE4 inhibition (IC50, 50% inhibition of LPS-induced TNF-α release).
Format: cell-based, human
Method in brief: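 Cryopreserved human PBMCs (10^5 cells/well) pre-incubated 30 min with compound (10^−12 to 10^−6 M or 10^−3 to 10^−7 M), then stimulated with LPS 3 ng/ml for 18 h at 37 °C. TNF-α in medium by ELISA; IC50 as mean ± 95% confidence limits.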
In the case of `CNS(=O)(=O)c1ccc(S(=O)(=O)N2CCSCC2C(=O)O[C@@H](Cc2c(Cl)c[n+]([O-])cc2Cl)c2ccc(OC(F)F)c(OCC3CC3)c2)cc1` (stereo partly drawn) [Compound 81, 3,5-dichloro-4-((2S)-2-(3-(cyclopropylmethoxy)-4-(difluoromethoxy)phenyl)-2-(4-(4-(N-methylsulfamoyl)phenylsulfonyl)thiomorpholine-3-carbonyloxy)ethyl)pyridine 1-oxide], the IC50 is reported as 0.1 to 1 nM.
`CN(C)C(=O)c1cccc(S(=O)(=O)N2CCCC[C@H]2C(=O)O[C@@H](Cc2c(Cl)c[n+]([O-])cc2Cl)c2ccc(OC(F)F)c(OCC3CC3)c2)c1` [Compound 82, 3,5-dichloro-4-((S)-2-(3-(cyclopropylmethoxy)-4-(difluoromethoxy)phenyl)-2-((S)-1-(3-(dimethylcarbamoyl)phenylsulfonyl)piperidine-2-carbonyloxy)ethyl)pyridine 1-oxide] showed an IC50 of less than 0.1 nM.
Compound `CN(C)C(=O)c1cccc(S(=O)(=O)N2CCCC[C@@H]2C(=O)O[C@@H](Cc2c(Cl)c[n+]([O-])cc2Cl)c2ccc(OC(F)F)c(OCC3CC3)c2)c1` [Compound 83, 3,5-dichloro-4-((S)-2-(3-(cyclopropylmethoxy)-4-(difluoromethoxy)phenyl)-2-((R)-1-(3-(dimethylcarbamoyl)phenylsulfonyl)piperidine-2-carbonyloxy)ethyl)pyridine 1-oxide] has an IC50 of less than 0.1 nM.
`CN(C)C(=O)c1cccc(S(=O)(=O)N2CSC[C@H]2C(=O)O[C@@H](Cc2c(Cl)c[n+]([O-])cc2Cl)c2ccc(OC(F)F)c(OCC3CC3)c2)c1` [Compound 84, 3,5-dichloro-4-((S)-2-(3-(cyclopropylmethoxy)-4-(difluoromethoxy)phenyl)-2-((R)-3-(3-(dimethylcarbamoyl)phenylsulfonyl)thiazolidine-4-carbonyloxy)ethyl)pyridine 1-oxide] gave an IC50 of less than 0.1 nM.
With `O=C(O[C@@H](Cc1c(Cl)c[n+]([O-])cc1Cl)c1ccc(OC(F)F)c(OCC2CC2)c1)C1SCCN1S(=O)(=O)c1ccsc1` (stereo partly drawn) [Compound 85, 3,5-dichloro-4-((2S)-2-(3-(cyclopropylmethoxy)-4-(difluoromethoxy)phenyl)-2-(3-(thiophen-3-ylsulfonyl)thiazolidine-2-carbonyloxy)ethyl)pyridine 1-oxide] the IC50 was less than 0.1 nM.
`O=C(O[C@@H](Cc1c(Cl)c[n+]([O-])cc1Cl)c1ccc(OC(F)F)c(OCC2CC2)c1)[C@@H]1CCCN1S(=O)(=O)c1ccccc1` [Compound 86, 3,5-dichloro-4-((S)-2-(3-(cyclopropylmethoxy)-4-(difluoromethoxy)phenyl)-2-((S)-1-(phenylsulfonyl)pyrrolidine-2-carbonyloxy)ethyl)pyridine 1-oxide] gave an IC50 of 0.1 to 1 nM.
For `COC(=O)c1ccc(S(=O)(=O)N2CCSC2C(=O)O[C@@H](Cc2c(Cl)c[n+]([O-])cc2Cl)c2ccc(OC(F)F)c(OCC3CC3)c2)s1` (stereo partly drawn) [Compound 87, 3,5-dichloro-4-((2S)-2-(3-(cyclopropylmethoxy)-4-(difluoromethoxy)phenyl)-2-(3-(5-(methoxycarbonyl)thiophen-2-ylsulfonyl)thiazolidine-2-carbonyloxy)ethyl)pyridine 1-oxide], the IC50 was 0.1 to 1 nM.
With `O=C(O[C@@H](Cc1c(Cl)c[n+]([O-])cc1Cl)c1ccc(OC(F)F)c(OCC2CC2)c1)[C@@H]1SCCN1S(=O)(=O)c1cccnc1` [Compound 88, 3,5-dichloro-4-((S)-2-(3-(cyclopropylmethoxy)-4-(difluoromethoxy)phenyl)-2-((S)-3-(pyridin-3-ylsulfonyl)thiazolidine-2-carbonyloxy)ethyl)pyridine 1-oxide] the IC50 was less than 0.1 nM.
Work on `O=C(O[C@@H](Cc1c(Cl)c[n+]([O-])cc1Cl)c1ccc(OC(F)F)c(OCC2CC2)c1)[C@@H]1SCCN1S(=O)(=O)c1ccccc1` [Compound 89, 3,5-dichloro-4-((S)-2-(3-(cyclopropylmethoxy)-4-(difluoromethoxy)phenyl)-2-((S)-3-(phenylsulfonyl)thiazolidine-2-carbonyloxy)ethyl)pyridine 1-oxide] yielded an IC50 of 0.1 to 1 nM.
`Cn1ccnc1S(=O)(=O)N1CCS[C@H]1C(=O)O[C@@H](Cc1c(Cl)c[n+]([O-])cc1Cl)c1ccc(OC(F)F)c(OCC2CC2)c1` [Compound 90, 3,5-dichloro-4-((S)-2-(3-(cyclopropylmethoxy)-4-(difluoromethoxy)phenyl)-2-((S)-3-(1-methyl-1H-imidazol-2-ylsulfonyl)thiazolidine-2-carbonyloxy)ethyl)pyridine 1-oxide] gave an IC50 of less than 0.1 nM.
`NS(=O)(=O)c1cccc(S(=O)(=O)N2CCS[C@H]2C(=O)O[C@@H](Cc2c(Cl)c[n+]([O-])cc2Cl)c2ccc(OC(F)F)c(OCC3CC3)c2)c1` [Compound 91, 3,5-dichloro-4-((S)-2-(3-(cyclopropylmethoxy)-4-(difluoromethoxy)phenyl)-2-((S)-3-(3-sulfamoylphenylsulfonyl)thiazolidine-2-carbonyloxy)ethyl)pyridine 1-oxide] was tested, and the IC50 was less than 0.1 nM.
In the case of `CS(=O)(=O)c1ccc(S(=O)(=O)N2CCSC2C(=O)O[C@@H](Cc2c(Cl)c[n+]([O-])cc2Cl)c2ccc(OC(F)F)c(OCC3CC3)c2)cc1` (stereo partly drawn) [Compound 92, 3,5-dichloro-4-((2S)-2-(3-(cyclopropylmethoxy)-4-(difluoromethoxy)phenyl)-2-(3-(4-(methylsulfonyl)phenylsulfonyl)thiazolidine-2-carbonyloxy)ethyl)pyridine 1-oxide], the IC50 is reported as less than 0.1 nM.
`COc1ccc(S(=O)(=O)N2CCS[C@H]2C(=O)O[C@@H](Cc2c(Cl)c[n+]([O-])cc2Cl)c2ccc(OC(F)F)c(OCC3CC3)c2)cc1OC` [Compound 93, 3,5-dichloro-4-((S)-2-(3-(cyclopropylmethoxy)-4-(difluoromethoxy)phenyl)-2-((S)-3-(3,4-dimethoxyphenylsulfonyl)thiazolidine-2-carbonyloxy)ethyl)pyridine 1-oxide] was tested, and the IC50 was less than 0.1 nM.
`CNS(=O)(=O)c1ccc(S(=O)(=O)N2CCS[C@H]2C(=O)O[C@@H](Cc2c(Cl)c[n+]([O-])cc2Cl)c2ccc(OC(F)F)c(OCC3CC3)c2)cc1` [Compound 94, 3,5-dichloro-4-((S)-2-(3-(cyclopropylmethoxy)-4-(difluoromethoxy)phenyl)-2-((S)-3-(4-(N-methylsulfamoyl)phenylsulfonyl)thiazolidine-2-carbonyloxy)ethyl)pyridine 1-oxide] gave an IC50 of less than 0.1 nM.
With `O=C(O[C@@H](Cc1c(Cl)c[n+]([O-])cc1Cl)c1ccc(OC(F)F)c(OCC2CC2)c1)[C@@H]1SCCN1S(=O)(=O)c1ccco1` [Compound 95, 3,5-dichloro-4-((S)-2-(3-(cyclopropylmethoxy)-4-(difluoromethoxy)phenyl)-2-((S)-3-(furan-2-ylsulfonyl)thiazolidine-2-carbonyloxy)ethyl)pyridine 1-oxide] the IC50 was less than 0.1 nM.
With `O=C(O[C@@H](Cc1c(Cl)c[n+]([O-])cc1Cl)c1ccc(OC(F)F)c(OCC2CC2)c1)[C@@H]1SCCN1S(=O)(=O)c1ccoc1` [Compound 96, 3,5-dichloro-4-((S)-2-(3-(cyclopropylmethoxy)-4-(difluoromethoxy)phenyl)-2-((S)-3-(furan-3-ylsulfonyl)thiazolidine-2-carbonyloxy)ethyl)pyridine 1-oxide] the IC50 was less than 0.1 nM.
Compound `CN(C)S(=O)(=O)c1cccc(S(=O)(=O)N2CCS[C@H]2C(=O)O[C@@H](Cc2c(Cl)c[n+]([O-])cc2Cl)c2ccc(OC(F)F)c(OCC3CC3)c2)c1` [Compound 97, 3,5-dichloro-4-((S)-2-(3-(cyclopropylmethoxy)-4-(difluoromethoxy)phenyl)-2-((S)-3-(3-(N,N-dimethylsulfamoyl)phenylsulfonyl)thiazolidine-2-carbonyloxy)ethyl)pyridine 1-oxide] has an IC50 of less than 0.1 nM.
